# According to PMC8951016, “Computational Design and Biological Evaluation of Analogs of Lupin Peptide P5 Endowed with Dual PCSK9/HMG-CoAR Inhibiting Activity” (Pharmaceutics, 2022):
# Legend:
# [1] = test system: LDLR on HepG2 cell surface; assay: In-cell western (ICW), LDLR on HepG2 surface in the presence of PCSK9; format: cell-based, human; settings: 50 µM + PCSK9 4 µg/mL; Figure 3B
# Method: For the experiments, a total of 3 × 10^4 HepG2 cells/well were seeded in 96-well plates and treated with 4.0 μg/mL PCSK9-WT and 4.0 μg/mL PCSK9 + peptides P5 and/or P5 analogs (50 µM) and vehicle (H2O) for 2 h at 37 °C under 5% CO2 atmosphere. Thus, cells underwent to ICW assay following conditions already optimized. See Supplementary Materials for detailed information. […]
# cLex Co., Nagano, Japan). The peptides (P5, P5-Best, P-H6A, and P5-S7A) were synthe-sized by the company GeneScript (Piscataway, NJ, USA) at >95% purity. The antibody against HMG-CoAR was bought from Abcam (Cambridge, UK). […]
# HMG-CoAR Aactivity Assay. […] Subsequently, the samples were mixed and the absorbance at 340 nm read by the microplate reader Synergy H1 (Winooski, VT, USA) at time 0 and 10 min. The HMG-CoAR-dependent oxidation of NADPH and the inhibition properties of peptides were measured by absorbance reduction, which is directly proportional to enzyme activ- […]
# In Vitro PCSK9-LDLR Binding Assay. […] The reaction was stopped with 2.0 M sulfuric acid and the absorbance at 450nm was measured using the Synergy H1 fluorescent plate reader […]
# [2] = test system: LDL uptake, HepG2 cells; settings: cited from earlier work
# Excerpt: In fact, in our previous paper, by applying a computational approach such as the one here applied, we designed and biologically evaluated two poly-imidazole derivatives endowed with PCSK9 inhibiting activity.
sequence,measurement,setting,value
"LILPKHSDAD [Peptide P5, natural peptide derived from a peptic lupin protein hydrolysate]",LDLR level on cell surface in presence of PCSK9,[1],restored
same,"uptake of extracellular LDL by HepG2 (P5, earlier work, words)",[2],improved ability of HepG2 cells to uptake extracellular LDL
